Assay results from patent US12467068B2, “Process for the production and recovery of bio-surfactant from Bacillus sp. MCC0156” (COUNCIL OF SCIENTIFIC & INDUSTRIAL RESEARCH, priority 2019, dated 2025).

Key:
[1] = Surfactant properties of purified compounds (oil dispersion, surface tension, emulsification); assay type: physicochemical; conditions: purified compound
Method: The purified compounds from the crude biosurfactants were analyzed for oil dispersion (OD), surface tension and emulsification activities using the standard protocols as mentioned in methodology. […] The low CMC value 0.3 mg/ml for crude biosurfactant results from mixture of compounds in compare to purified single compound.

Artemia salina = assay: Toxicity on microcrustacean Artemia salina (mortality after 24 h); assay type: in vivo; conditions: 24 h at 28 °C, artificial sea water
Method: The toxicity of bio-surfactants on microcrustacean Artemia salina was performed in artificial sea water with 30 g/L (w/v) NaCl. Different concentrations like, 10 μg/ml, 100 μg/ml and 1000 μg/ml of crude bio-surfactant and purified compound-1 was supplemented in artificial sea salt solution (pH 8.0) and inoculated with 20 numbers of micro-crustacean A. salina in 10 ml per tube of solution and incubated for 24 h at 28° C. under artificial light condition.
The toxicity of bio-surfactants was determined by calculating the mortality rate against the control (in triplicate) after 24 h incubation. The effect of biosurfactants on the microorganisms was studied in minimal salt medium (MSM) to determine the utilization or degradation pattern of bio-surfactant in presence of Pseudomonas aeruginosa NCIM 2037, Arthrobacter sp NCIM 5452 and Rhodococcus sp NCIM 5488. The minimal salt medium was supplemented with 100 ppm of crude biosurfactant and inoculated with all three strains and incubated at 30° C., 150 rpm for 72 h. Effect of biosurfactants on growth of test strains were determined through measuring the optical density at 620 nm after incubation of 72 h.

[2] = set-up: Surface tension reduced to: unit not given here; conditions: cited from earlier work

Question: For `CC(C)CCCCCCCCCCCCC(O)CC(=O)O` (stereo not drawn) [compound-2, 3-Hydroxy-16-methylheptadecanoic acid], which “Surface properties (oil dispersion, surface tension, emulsification activity)” value [1] is on record?
Answer: not active

Question: Which E24 for n-hexane [1] does the source give for `C=CCCCCCCCCCCCCCCCCCCCCCCCCCCCCCCCCCCCCCCCCCCCCCCCCCCCCCCCCCCCCCCCCCCCCCCCCCCCCCCCCCCCCCCCCCCCCC` [compound-1, 1-Pentanonacontene] here?
Answer: 40%

Question: And the Oil dispersion efficiency [1]?
Answer: 93.75%

Question: And the “Surface tension of distilled water decreased to” value ([1]; distilled water 71.41±0.069 mN/m)?
Answer: 28.53±0.02 mN/m

Question: And the Mortality (Artemia salina; 10 μg/ml)?
Answer: 59%

Question: And the Mortality (Artemia salina; 100 μg/ml)?
Answer: 61%

Question: And the Mortality (Artemia salina; 1000 ug/ml)?
Answer: 68%

Question: For Aneurinifactin, which “Surface tension reduced to” value ([2]; reported biosurfactant) is on record?
Answer: 26

Question: And the CMC value ([2]; reported biosurfactants)?
Answer: 0.026 mg/mL
